Test results from ChEMBL document CHEMBL3638921, “Bicyclic aryl and heteroaryl sodium channel inhibitors” (2015).

Columns and labels:
[1] = target: T1, Sodium channel protein type 9 subunit alpha (Homo sapiens, UniProt Q15858); assay: In Vitro Assay: 293 Cells stably transfected with either Nav 1.7 or Nav 1.5 were recorded in population patch-clamp mode with the IonWorks Quattro automated electrophysiology system in accordance with the manufacturer's specifications (Molecular Devices, LLC, Sunnyvale, Calif.). Sodium channel currents were measured in response to a train of depolarizations that induced successively greater inactivation.Cells were held at -110 mV for three seconds (Nav 1.7) or half a second (Nav 1.5) from a holding voltage of -15 mV, then put through a series of 26 pulses of 150 msec duration to -20 mV at a frequency of 5 Hz. Cells were then left unclamped for a period of 3 to 8 minutes while a single concentration of test compound was added. Cells were then reclamped and put through the same voltage protocol. Current at the end of the 26th pulse to -20 mV was subtracted from the peak current evoked by the 26th pulse to -20 mV to correct for leak current.
[2] = target: T1, Sodium channel protein type 9 subunit alpha; assay: In Vitro PX Assay: 293 cells stably transfected with human Nav1.7 were recorded in whole cell voltage clamp mode with the PatchXpress automated electrophysiology system (Molecular Devices, LLC, Sunnyvale, Calif.). Compound effects were measured on a partially inactivated state of the sodium channel. Cells were clamped to a holding potential yielding 20 to 50% inactivation. To elicit sodium current, channels were activated by pulsing to −10 mV for 20 msec. This voltage protocol was repeated at a rate of 0.1 Hz throughout the experiment. A single concentration of test compound was applied to cells for a duration of 3 minutes. Peak sodium current was measured at the end of the compound addition period to determine percent inhibition.; format: cell-based

T1 sequence (Q15858 whole entry): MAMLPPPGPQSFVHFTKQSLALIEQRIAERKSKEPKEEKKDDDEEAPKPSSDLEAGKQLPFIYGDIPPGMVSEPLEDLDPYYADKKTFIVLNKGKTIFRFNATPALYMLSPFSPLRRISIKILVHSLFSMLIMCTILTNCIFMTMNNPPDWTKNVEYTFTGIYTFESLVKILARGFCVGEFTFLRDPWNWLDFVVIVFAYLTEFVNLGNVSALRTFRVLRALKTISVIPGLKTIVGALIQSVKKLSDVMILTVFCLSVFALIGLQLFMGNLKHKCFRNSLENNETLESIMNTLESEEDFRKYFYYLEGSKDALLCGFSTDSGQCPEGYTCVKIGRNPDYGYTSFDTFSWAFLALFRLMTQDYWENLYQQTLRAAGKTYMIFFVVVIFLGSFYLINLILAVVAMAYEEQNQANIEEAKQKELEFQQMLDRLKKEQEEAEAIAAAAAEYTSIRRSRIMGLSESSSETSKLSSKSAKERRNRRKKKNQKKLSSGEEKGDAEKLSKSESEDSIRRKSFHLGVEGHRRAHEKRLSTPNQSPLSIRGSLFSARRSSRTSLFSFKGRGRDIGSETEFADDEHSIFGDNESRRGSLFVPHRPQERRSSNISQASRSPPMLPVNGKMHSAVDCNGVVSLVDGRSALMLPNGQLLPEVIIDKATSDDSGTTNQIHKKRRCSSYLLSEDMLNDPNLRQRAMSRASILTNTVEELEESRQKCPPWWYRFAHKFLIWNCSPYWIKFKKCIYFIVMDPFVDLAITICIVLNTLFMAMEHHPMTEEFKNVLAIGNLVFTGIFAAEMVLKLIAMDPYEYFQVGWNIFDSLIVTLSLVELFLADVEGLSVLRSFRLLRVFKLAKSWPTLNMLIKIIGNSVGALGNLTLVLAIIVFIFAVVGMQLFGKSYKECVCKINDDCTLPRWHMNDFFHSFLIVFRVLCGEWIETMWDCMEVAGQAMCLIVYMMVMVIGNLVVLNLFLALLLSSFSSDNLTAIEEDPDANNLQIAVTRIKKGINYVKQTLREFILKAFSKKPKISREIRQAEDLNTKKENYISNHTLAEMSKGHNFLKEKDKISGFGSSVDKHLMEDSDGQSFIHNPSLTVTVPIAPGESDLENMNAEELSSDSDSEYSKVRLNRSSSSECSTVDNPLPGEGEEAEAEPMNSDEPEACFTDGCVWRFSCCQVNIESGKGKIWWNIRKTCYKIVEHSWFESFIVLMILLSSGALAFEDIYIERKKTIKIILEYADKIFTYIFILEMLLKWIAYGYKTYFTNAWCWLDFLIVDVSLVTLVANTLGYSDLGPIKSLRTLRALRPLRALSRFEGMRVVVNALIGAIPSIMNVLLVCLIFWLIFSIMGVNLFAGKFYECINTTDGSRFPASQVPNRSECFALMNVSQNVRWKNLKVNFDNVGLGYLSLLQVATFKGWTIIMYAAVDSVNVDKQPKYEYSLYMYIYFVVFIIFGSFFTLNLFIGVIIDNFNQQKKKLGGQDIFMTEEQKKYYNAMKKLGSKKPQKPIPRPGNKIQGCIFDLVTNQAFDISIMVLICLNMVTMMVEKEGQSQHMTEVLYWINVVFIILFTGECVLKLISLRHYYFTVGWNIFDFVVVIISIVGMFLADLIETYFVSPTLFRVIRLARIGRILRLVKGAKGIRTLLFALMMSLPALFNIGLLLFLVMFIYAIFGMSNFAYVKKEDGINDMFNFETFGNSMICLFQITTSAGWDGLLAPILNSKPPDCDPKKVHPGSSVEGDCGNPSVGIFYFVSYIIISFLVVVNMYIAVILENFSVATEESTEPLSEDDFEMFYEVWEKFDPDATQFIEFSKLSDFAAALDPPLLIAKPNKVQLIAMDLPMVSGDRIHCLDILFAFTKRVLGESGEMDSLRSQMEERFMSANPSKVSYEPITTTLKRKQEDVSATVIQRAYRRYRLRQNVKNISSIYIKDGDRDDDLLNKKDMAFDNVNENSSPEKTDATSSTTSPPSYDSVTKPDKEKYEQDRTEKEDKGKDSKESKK

IC50 [2] [µM] | SMILES | IC50 [1] [µM]
– | O=S(=O)(Nc1ncns1)c1ccc2c(-c3ccc(Cl)cc3)cccc2c1 | 0.19
– | O=S(=O)(Nc1ncns1)c1ccc2c(-c3ccc(C(F)(F)F)cc3)cccc2c1 | 0.43
– | O=S(=O)(Nc1ncns1)c1ccc2c(-c3ccc(Cl)cc3F)cccc2c1 | 0.21
5.16 | Cc1cnc(OCCOc2ccccc2)c(-c2nccc3cc(S(=O)(=O)Nc4nccs4)ccc23)c1 | –
– | O=S(=O)(Nc1ncns1)c1ccc2c(-c3ccc(C(F)(F)F)cc3F)cccc2c1 | 0.21
– | Nc1cc(Cl)ccc1-c1cccc2cc(S(=O)(=O)Nc3ncns3)ccc12 | 0.11
13.5 | O=S(=O)(Nc1nccs1)c1ccc2c(-c3ccc(F)cc3Oc3cccnn3)nccc2c1 | –
0.971 | O=S(=O)(Nc1nccs1)c1ccc2c(-c3ccc(C(F)(F)F)cc3Cl)ncnc2c1 | –
– | Cc1noc(C)c1-c1nccc2cc(S(=O)(=O)Nc3ccncn3)ccc12 | > 10
– | Cc1cc(Cl)ccc1-c1cccc2cc(S(=O)(=O)Nc3ncns3)ccc12 | 0.19
10.8 | O=S(=O)(Nc1ccncn1)c1ccc2c(-c3cc(C(F)(F)F)ccc3F)nccc2c1 | 0.57
10.5 | O=S(=O)(Nc1ncns1)c1ccc2c(N3CCC3c3ccccc3)cccc2c1 (stereo not given) | 3.9
5.37 | COc1cc(-c2cccnc2)ccc1-c1nccc2cc(S(=O)(=O)Nc3ccncn3)ccc12 | –
0.393 | COc1cc(C)ccc1-c1nccc2cc(S(=O)(=O)Nc3nccs3)ccc12 | –
18.3 | COc1cc(Cl)ncc1-c1nccc2cc(S(=O)(=O)Nc3ccncn3)ccc12 | 0.46
– | O=S(=O)(Nc1ncns1)c1ccc2c(-c3ccc(Cl)cc3Cl)nccc2c1 | 0.07
1.23 | COc1cc(C#N)ccc1-c1nncc2cc(S(=O)(=O)Nc3nccs3)ccc12 | 0.26

SMILES | IC50 [2] [µM] | IC50 [1] [µM]
O=S(=O)(Nc1nccs1)c1ccc2c(N3CCN(c4ccc(Cl)c(Cl)c4)CC3)nccc2c1 | 10.9 | –
CN1CCC(c2cc(C(F)(F)F)ccc2-c2cccc3cc(S(=O)(=O)Nc4ncc(F)s4)ccc23)CC1 | 0.282 | 0.15
O=S(=O)(Nc1ccncn1)c1ccc2c(-c3ccc(-c4cccc(F)c4)cc3)nccc2c1 | 4.5 | –
